How the values were obtained:
MBP induced acute EAE = assay: MBP induced acute EAE; assay type: in vivo, Lewis rats
Protocol: In the present study, EAE was induced by injection of Myelin Basic Protein (MBP), a method known to model the acute phase of MS. In this model the onset of the disease is observed by the appearance of clinical symptoms about 10 days after induction. The disease progresses and the clinical score increases and peaks around day 15 and spontaneous recovery is observed around day 23 after induction of the disease.
Female Lewis rats (average body weight 130-180 g, Harlan, Israel) were injected s.c. into the hind paws with 25 μg of purified guinea pig myelin basic protein (MBP, Sigma) emulsified in 0.1 ml of Complete Freund's Adjuvant (Difco). Animals were maintained on a 12 hours light/12 hours dark regimen, at a constant temperature of 22° C., with food and water ad libitum. Starting from day 8 following induction, animals were followed up on a daily basis. The results are recorded as clinical score; score of 0 indicates a normal animal with no clinical signs, 0.5 indicates a loss of tonicity in the tail's distal part, 1 indicates whole tail paralysis, 1.5 indicates hind legs weakness in one leg, 2 indicates hind legs weakness in two legs, 2.5 indicates fore legs paralysis in one leg, 3 indicates paralysis of all four legs, 4 indicates complete body paralysis and moribund state and 5 indicates death. The clinical score of the animals is recorded for 15 days following onset of disease until the end of the study 25 days following induction and the area under the curve (AUC) is calculated over this period of time.
Few routes of administration were assessed and the treatments were either administered intravenously (in CE vehicle) or orally by gavage (in PB vehicle) at volume dose of 5 ml/kg.
Results are expressed as mean±SEM and the differences between the treatment groups were analyzed by analysis of variance (ANOVA) followed by Tukey's post hoc test. A value of p<0.05 was considered to be statistically significant and is indicated on the figure by an asterisk over the relevant treatment group.
Compound 18A was dissolved in CREMOPHOR EL®:ethanol and further diluted in physiological buffer prior to i.v. administration. It is now disclosed that compound 18F could be dissolved directly in 80 mM phosphate buffer (pH 6.4) and administered p.o. Compound 18F was administered by oral gavage at doses of 20, 30, 40, 50 and 60 mg/kg to animals showing clinical signs of the disease. Each treatment group comprised at least 10 animals at onset of disease. At some doses, experiments were repeated up to four times.

[1] = test system: chronic constriction induced neuropathic pain; assay: Chronic constriction induced neuropathic pain (Von Frey filaments); assay type: in vivo, Sprague-Dawley rats
Text: A peripheral monopathy was induced in the right hind limb of rats following a chronic constriction of the sciatic nerve according to Bennet et al. [Bennet, G. J. & Xie, Y-K., Pain 33: 87-107, 1988]. The development of mechanical allodyna was monitored using an established behavioral test (Von Frey filaments).
Pre-surgery baseline values were ascertained as the mean of 2 pre-surgery values. Once the baseline values had been established, the animals were surgically prepared by constricting the right sciatic nerve with 4 chromic cat gut loose ligatures. On day 11 post-operation, the animals that have developed mechanical allodyna were arbitrarily allocated to the various treatment groups based on the pre-surgery values.
The design was randomized, performed in a masked fashion as to whether drug or vehicle is being given. The animals, male Sprague-Dawley rats (average body weight 240-290 g, Harlan, Israel), were allowed to acclimatize to the behavioral testing equipment prior to testing. […] The filaments were applied in ascending order starting with the weakest force and the withdrawal threshold for both the ipsilateral and contralateral hind paws was evaluated. […] The withdrawal threshold is defined as being the lowest force of two or more consecutive Von Frey's filaments to elicit a reflex withdrawal response (i.e. a brief paw flick) and is measured in grams.

ICR male mice = assay: Tetrad Assay (safety)

CCCCCCC(C)(C)c1cc(O)c([C@H]2CC(=O)C3CC2C3(C)C)c(OC(=O)/C=C/C(=O)O)c1 (single isomer, unassigned; (-)) [Compound 18F, (−)-4-{4-[1,1-Dimethylheptyl]-2-fumarate-6-hydroxy-phenyl}-6,6-dimethyl-bicyclo[3.1.1]heptan-2-one]
effect on clinical outcome (mean group score) (MBP induced acute EAE; 20 mg/kg p.o.): does not significantly affect the clinical outcome
effect on mean of maximal scores (MMS) (MBP induced acute EAE; 20 mg/kg p.o.): only a trend of improvement
effect on clinical outcome (mean group score) (MBP induced acute EAE; 30 mg/kg p.o.): positive trend of score reduction
reduction of AUC (MBP induced acute EAE; 30 mg/kg p.o., ns): more than 20%
reduction of AUC (MBP induced acute EAE; 40 mg/kg p.o., p<0.05): 33%
reduction of AUC (MBP induced acute EAE; 50 mg/kg p.o., p<0.05): 42%
animals died before study completion (MBP induced acute EAE; 60 mg/kg p.o.): 7%
reduction of AUC (MBP induced acute EAE; 60 mg/kg p.o., p<0.05): 43%
increase of pain threshold over vehicle treated animals (mechanical hyperalgesia) (MBP induced acute EAE; 60 mg/kg p.o., preliminary): 25%
reduction in MMS (MBP induced acute EAE; 30-60 mg/kg p.o.): at least 30%
CB1 mediated side effects (MBP induced acute EAE; repeated p.o. administration): no CB1 mediated side effects were observed
effect on neuropathic pain ([1]; 20 mg/kg p.o.): little effect
effect on neuropathic pain ([1]; 40 mg/kg p.o.): as strong as 5 mg/kg morphine administered subcutaneously
body temperature (ICR male mice; 30, 60, 80 and 100 mg/kg p.o.): transient hypothermia
time to regain normothermia (ICR male mice; 30 and 60 mg/kg p.o.): ≤ 24 h
body temperature below baseline at the end of follow-up period (ICR male mice; 80 and 100 mg/kg p.o.): 2 °C
safety at therapeutically effective doses (ICR male mice; doses of up to 60 mg/kg p.o.): found to be safe
catalepsy and spontaneous or forced locomotor activity (ICR male mice; p.o., up to maximal dose tested of 100 mg/kg): no effect
